Measurements taken from patent US7247444B2, “Use of interleukin-19 to treat cervical cancer” (ZymoGenetics, Inc., priority 2002, dated 2007).

B1: IL-19: interleukin-19 polypeptide, SEQ ID NO:2; mature secreted form from amino acid 23 (His) to 177 (Ala) (protein, listed as Homo sapiens)
chain: MKLQCVSLWLLGTILILCSVDNHGLRRCLISTDMHHIEESFQEIKRAIQAKDTFPNVTILSTLETLQIIKPLDVCCVTKNLLAFYVDRVFKDHQEPNPKILRKISSIANSFLYMQKTLRQCQEQRQCHCRQEATNATRVIHDNYDQLEVHAAAIKSLGELDVFLAWINKNHEVMSSA

System: HeLa299
Assay: HeLa299 cytoxicity assay (MTT readout)
Format: cell-based
Conditions: HeLa299 cells, 72 hrs, complete growth media
Method: We tested IL-19 in a HeLa299 cytoxicity assay to measure the ability of IL-19 to prevent cells from growing during normal growth conditions. We used MTT reagent (Promega, Madison, USA) as our detection and readout for this cell inhibition assay. Procedure of a cytoxicity assay: • Day 1—Plate cells out in complete growth media (with serum) at 5000 cells/well in a 96 well format and let them incubate overnight at 37 degrees and 5% CO2. • Day 2—Dump off media and add a dose response of appropriate ligands in complete growth media (IL-19 at 10, 100, and 1000 ng/ml.), along with a positive control retinoic acid (100 uM) in complete growth media, while leaving some wells in complete growth media as controls of how the cells normally grow under normal conditions. Put the cells in incubator and let the assay go for 72 hrs. • Day 5—Add 15 ul/well of MTT reagent, let cells inc. for 4 hrs., then add 100 ul of stop solution, let cells inc. for an additional 1 hr., then read the plate on a multilabel counter (Victor2, PerkinElmer Life Sciences Inc., Boston). The MTT protocol will give you two readings, one at a 650 wavelength (background) and one at a 572 wavelength. Subtract the 650 reading from the 572 reading to get your actual output. These numbers are averaged and converted to a % inhibition value.

Molecule | inhibition at 100 µM (retinoic acid 100 uM) | maximal inhibition of growth (IL-19 dose response 10, 100, and 1000 ng/ml)
CC1=C(/C=C/C(C)=C/C=C/C(C)=C/C(=O)O)C(C)(C)CCC1 [Retnoic Acid, retinoic acid] | 53% | –
B1 | – | 38%
